The source of these data is patent US4433154A, “Bis(carboxamide) derivatives” (Shionogi & Company, Limited, priority 1981, dated 1984).

The target in the test is T1, histamine H2 receptor (Cavia porcellus, UniProt P47747).
T1 construct: enucleated atrium of a guinea pig; from tissue; host or cells: guinea pig atrium
Kind of test: Histamine H2-blocking effect in enucleated guinea pig atrium (inhibition of histamine-increased pulse). The format is cell-based. The following applies: in vitro; enucleated guinea pig atrium pretreated with drug; negative logarithm of antagonist dose shifting histamine dose-response curve corresponding to doubling of histamine concentration; read-out: pA2 (converted). From the text:
In the table 10, the symbol pA2 indicates the degree of pulse inhibition of the compounds (I) in the present invention in the enucleated atrium of a guinea pig. The assigned number of compounds in the table conforms to the number of the examples.
(Note) PA2 is an in vitro indicator of histamine H2 -blocking effect. […] The result was shown by negative logarithms of the dose of antagonist which is required to shift the dose-response curve of histamine in parallel to the side corresponding to a doubling of the concentration of histamine [Ariens, Molecular Pharmacology, vol./, Academic Press, New York (1964)].

T1 sequence (P47747 whole entry): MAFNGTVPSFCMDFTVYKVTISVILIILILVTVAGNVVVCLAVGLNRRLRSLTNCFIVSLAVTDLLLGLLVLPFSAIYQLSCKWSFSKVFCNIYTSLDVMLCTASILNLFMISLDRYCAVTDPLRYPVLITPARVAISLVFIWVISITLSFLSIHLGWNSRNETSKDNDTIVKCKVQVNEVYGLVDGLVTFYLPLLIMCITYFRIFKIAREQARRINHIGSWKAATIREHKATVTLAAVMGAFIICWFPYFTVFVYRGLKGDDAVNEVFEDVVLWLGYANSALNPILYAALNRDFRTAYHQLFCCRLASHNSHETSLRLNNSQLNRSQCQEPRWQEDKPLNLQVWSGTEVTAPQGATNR

On to `O=C(/C=C/C(=O)NCCCOc1cccc(CN2CCCC2)c1)NCCCOc1cccc(CN2CCCC2)c1` [Example 10, N,N'-bis{3-[3-(1-pyrrolidinylmethyl)phenoxy]propyl}fumaramide], for which the Kb was 53.7 nM.

Take `O=C(NCCCOc1cccc(CN2CCCC2)c1)c1ccc(C(=O)NCCCOc2cccc(CN3CCCC3)c2)cc1` [Example 11]: the Kb is 204 nM.

`O=C(CSCC(=O)NCCCOc1cccc(CN2CCCC2)c1)NCCCOc1cccc(CN2CCCC2)c1` [Example 12, N,N'-bis{3-[3-(1-pyrrolidinylmethyl)phenoxy]propyl}thiodiglycoldamide]: the Kb is 66.1 nM.

`O=C(NCCCOc1cccc(CN2CCCC2)c1)c1cccc(C(=O)NCCCOc2cccc(CN3CCCC3)c2)c1` [Example 14]: the Kb was 60.3 nM.
